{
  "source": "paper PMC4279419",
  "about": "“Angiostatic, tumor inflammatory and anti-tumor effects of CXCL4^47–70 and CXCL4L1^47–70 in an EGF-dependent breast cancer model” (Oncotarget, 2014)",
  "key": {"CXCR3A": {"tested_on": "CXCR3A", "test": "Calcium signaling in CXCR3A-transfectants", "format": "cell-based", "conditions": "CXCL10 5 ng/ml after prestimulation with buffer; CHO/CXCR3A; fura 2", "description": "We further tried to reveal the mode of action of CXCL4^47–70 and CXCL4L1^47–70. First, we excluded that either peptide still binds/activates one of the CXCR3 isoforms, the receptors for intact CXCL4 and CXCL4L1. […]\ninhibit signaling by intact CXCL10. To study interaction of CXCL447–70 and CXCL4L147–70 with CXCR3A, CHO cells stably transfected with CXCR3A were loaded with the fluorescent dye fura 2 (Struyf et al. J. Immunol. 2009, 182:666). Changes in the intracellular Ca2+ concentrations ([Ca2+]i) in response to CXCL447–70 or CXCL4L147–70 treatment were monitored using a spectrofluorometer. The line in the spectra indicates the fluorescence intensity ratio (i.e. the fluorescence intensity measured after excitation at 340 nm divided by the fluorescence intensity measured after excitation at 380 nm). The results shown (one representative experiment out of three) illustrate a desensitization experiment, in which CHO/CXCR3A cells were stimulated first with a peptide (2 µg/ml) and 100 s later with intact CXCL10 […]\npeptides induced a rise in [Ca2+]i. When the cells were stimulated with 5 ng/ml intact CXCL10 100 s after peptide treatment, the response […]\ninteract with CXCR3A. Arrows indicate the time of addition of the stimulus.\n(also on this page, place not known: www.impactjournals.com/oncotarget/ Oncotarget, Supplementary Materials 2014 CXCL4 47–70 CXCL4L1 47–70 CXCL4 47–70 CXCL4L1 47–70 CXCL4 47–70) […]"}, "[1]": {"tested_on": "human retinal microvascular endothelial cells (HMVEC)", "test": "HMVEC MTT proliferation assay", "format": "cell-based", "conditions": "EGF 3 ng/ml; control medium PI=1; 3 to 4 days; MTT OD570–630; mean ± s.e.m., n=7", "protocol": "(§1) First, HMVEC and HLEC were seeded at 5 × 10^3 cells/well in EBM-2 + 1% FCS in a 96-well plate, whereas MDA-MB-231 were starved of growth factors overnight by replacing their growth medium with DMEM (serum-free) prior to seeding the tumor cells at 15 × 10^2 cells/well in DMEM + 1% FCS. As for the rest of the assay, the same protocol applies to all cells. Once adherent, cells were incubated with different concentrations of the peptides CXCL4^47–70 and CXCL4L1^47–70 as single stimuli or in combination with recombinant human EGF (3 ng/ml; R&D Systems, Minneapolis, MN) at 37°C/5% CO2. All conditions were tested in triplicate or quadruplicate. After 3 to 4 days, stimulation medium was removed and a sterile MTT solution was added [0.04 g/100 ml thiazolyl blue (Sigma-Aldrich, St. Louis, MO) in 20% PBS/80% RPMI without phenol red (Lonza)] for 3 to 4 hours. The formed formasan crystals were dissolved by replacing the MTT solution with acidic propanol (0.04 M HCl, 0.1% (v/v) Nondet P-40 in absolute isopropanol) and shaking the plate, shielded from light, for 10 minutes. Optical density (OD) was determined at 570 nm and 630 nm. The obtained ODs were processed to proliferation indexes (PI), expressed relative to appropriate buffer controls, i.e. ΔOD570–630X over ΔOD570–630CO."}, "p21 in HMVEC": {"tested_on": "p21 in HMVEC", "test": "Intracellular p21 content in HMVEC (ELISA)", "format": "cell-based, human", "conditions": "EGF 20 ng/ml; 15 h; p21:total protein; mean ± s.e.m., n=9; p<0.001 versus control", "protocol": "Signaling assays were slightly adapted to the signaling molecules of interest in this study. HMVEC were stimulated with EGF (20 ng/ml) as a single stimulus or in combination with the peptides CXCL4^47–70 and CXCL4L1^47–70 (0.3 to 10 μg/ml) in order to evaluate their impact on the cell cycle-arresting p21. After 15 hours, the cells were washed three times with ice-cold PBS to stop the stimulation and lysis buffer [1 mM EDTA, 0.5% (v/v) Triton-X, 10 mM NaF, 150 mM NaCl, 1 mM DTT in PBS; pH 7.2–7.4] supplemented with a protease inhibitor cocktail (Sigma) was added. Cell residue was removed from the collected lysates by centrifugation (4°C, 10 min, 1666g). Lastly, the intracellular p21 content was determined by DuoSet® IC ELISA (cat n° DYC1047, R&D Systems) while, in parallel, total protein content was measured in a bicinchoninic acid (BCA) protein assay (Pierce, Rockford, IL)."}, "[2]": {"tested_on": "human dermal lymphatic microvascular endothelial cells (HLEC)", "test": "HLEC MTT proliferation assay", "format": "cell-based", "conditions": "data not shown", "protocol": "as §1"}, "endothelial cell": {"tested_on": "endothelial cell", "conditions": "compared with CXCL4; cited from earlier work", "description": "Angiogenesis, the formation of an ever more branching network of blood vessels from a pre-existing vascular network, has been established as a requisite for successful tumor growth and cancer progression. Anti-angiogenic therapy thus offers a promising approach to tackle one of the leading causes of mortality worldwide. However, classic anti-angiogenic therapeutics have encountered important hurdles and interest in less obvious targets, including inflammatory mediators such as the chemokines, increases. These chemotactic cytokines play an important role in immunity as they ..."}, "recombinant human CCL5": {"target": "T1, recombinant human CCL5 (human, UniProt P13501 24-91)", "T1 construct": "CCL5, human, recombinant protein; source: bought: PeproTech", "T1 sequence (looked up)": "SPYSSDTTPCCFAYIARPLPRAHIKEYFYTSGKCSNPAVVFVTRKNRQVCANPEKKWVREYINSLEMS", "test": "ELISA; 50 ng/ml CCL5 in PBS coated overnight at room temperature on high protein-binding ELISA plates, blocked with 0.1% casein; dilution curve of biotinylated peptide at 37 °C; detected with peroxidase-conjugated streptavidin, OD450", "conditions": "both partners purified"}, "monocyte": {"tested_on": "monocyte", "conditions": "through heteromultimerization with CCL5; cited from earlier work", "description": "Concerning direct cytokine ligand interactions, both positive and negative interactions have been described for intact CXCL4 [33, 34, 37, 38] and its carboxy-terminal peptide. […] In this study we chose two cytokines important in our breast cancer model and verified interaction with CXCL4^47–70 and CXCL4L1^47–70: EGF as g ..."}, "p21": {"tested_on": "p21", "conditions": "EGF-stimulated endothelial cells; cited from earlier work", "description": "Previously, the EGF-induced reduction of the cyclin-dependent kinase inhibitor p21 was described. […] Therefore, we studied the effects of chemokine-derived peptides on p21 levels and, with it, their ability to arrest the cell cycle. Evaluation of the p21 content in HMVEC did confirm CXCL4^47–70 and CXCL4L1^47–70 to counteract the tendency of EGF to reduce p21 (Figure 2). […] Ad ..."}},
  "note": "Where no end group is shown, it is not given here. The star is where a group is joined. Biotin = O=C1N[C@H]2[C@H](CS[C@H]2CCCCC(=O)*)N1",
  "data": [
    {"molecule": "CXCL10: intact CXCL10, CXCR3 ligand [reference compound]", "values": [
      {"measurement": "calcium response to CXCL10", "setting": "CXCR3A", "result": "significant increase in [Ca2+]i"}
    ]},
    {"molecule": "EGF: recombinant human EGF (R&D Systems) [reference compound]", "values": [
      {"measurement": "Proliferation index (PI), EGF alone", "setting": "[1]", "result": "1.42 ± 0.08"},
      {"measurement": "intracellular p21 relative to control (100%), EGF alone", "setting": "p21 in HMVEC", "result": "75.82 ± 3.69", "unit": "%"},
      {"measurement": "HLEC proliferation response to EGF", "setting": "[2]", "result": "not responsive to EGF-stimulation"}
    ]},
    {"molecule": "CXCL4L1: recombinant human CXCL4L1 isolated from baculovirus-infected Sf9 cells (protein, UniProt P10720 31-104, looked up) Platelet factor 4 variant: FARAEAEEDGDLQCLCVKTTSQVRPRHITSLEVIKAGPHCPTAQLIATLKNGRKICLDLQALLYKKIIKEHLES", "values": [
      {"measurement": "inhibition of CXCL8- and FGF2-induced endothelial cell chemotaxis", "setting": "endothelial cell", "result": "more efficiently than CXCL4"}
    ]},
    {"molecule": "Biotin-NGRKICLDLQAPLYKKIIKKLLES (peptide, UniProt P02776 78-101, looked up, CXCL4/Platelet factor-4 (PF-4), human, last 24 amino acids (residues 47-70) of the 70 amino acid-long mature protein; has Pro58, Lys66, Leu67; numbers count on: the mature protein; The functional assays (chemotaxis, calcium) used the peptide without mention of biotin; also called carboxy-terminal peptide of CXCL4/Platelet factor-4 (PF-4); source: synthetic peptide (Fmoc chemistry, purified by …))", "note": "[NH2-terminally biotinylated CXCL4^47–70 peptide]", "values": [
      {"measurement": "binding result", "setting": "recombinant human CCL5", "result": "binds"}
    ]},
    {"molecule": "CXCL4: natural human CXCL4 isolated from stimulated platelets; 70 amino acid-long mature protein (protein, UniProt P02776 32-101, looked up) Platelet factor 4: EAEEDGDLQCLCVKTTSQVRPRHITSLEVIKAGPHCPTAQLIATLKNGRKICLDLQAPLYKKIIKKLLES", "values": [
      {"measurement": "effect on CCL5 monocyte chemotactic activity", "setting": "monocyte", "result": "enhances monocyte chemotactic activity of CCL5"},
      {"measurement": "effect on EGF-induced p21 downregulation", "setting": "p21", "result": "appeared to interfere with this p21 downregulation"}
    ]}
  ]
}
